Structures can show the parent of a compound that is named as a salt.
Tests used:
Format in all cases: biochemical
PIM-1 = PIM-1 (Homo sapiens, UniProt P11309); assay: Enzyme PIM-1 Assay ([33P]ATP incorporation into PIM2tide, filter plate); details: averaged IC50; 35 μM ATP, 7.5 μM PIM2tide, 0.25 nM PIM-1, 60 min at 22° C.
Summary of the method: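 Radiometric assay: 0.25 nM PIM-1 phosphorylates 7.5 μM PIM2tide with 35 μM [γ-33P]ATP in 20 mM MOPS pH 7.4, 10 mM MgCl2, 1 mM DTT, 0.005% Tween-20, 60 min at 22 °C. Product captured on P81 filters, scintillation counted; 10-point 3-fold curve from 10 μM top, 2% DMSO, IC50 by 4-parameter logistic fit of POC.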

[1] = biological target: T1, GST-tagged recombinant full-length human Pim-2 (Homo sapiens, UniProt Q9P1W9); assay: PIM-2 Assay (as Example A); details: averaged IC50; 4 μM ATP, 1.0 μM PIM2tide, 1.5 nM Pim-2
T1 construct: GST-tagged recombinant full-length human Pim-2; GST
T1 sequence (Q9P1W9 whole entry): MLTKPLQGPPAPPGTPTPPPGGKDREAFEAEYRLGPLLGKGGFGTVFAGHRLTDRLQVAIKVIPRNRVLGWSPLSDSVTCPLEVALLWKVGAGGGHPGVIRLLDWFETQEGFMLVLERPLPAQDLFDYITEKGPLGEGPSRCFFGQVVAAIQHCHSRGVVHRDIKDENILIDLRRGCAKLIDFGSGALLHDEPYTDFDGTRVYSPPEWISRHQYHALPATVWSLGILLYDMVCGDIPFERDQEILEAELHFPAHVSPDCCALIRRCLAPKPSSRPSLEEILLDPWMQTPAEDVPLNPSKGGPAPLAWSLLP
Summary of the method: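 Radiometric filter-binding assay: GST-tagged full-length human Pim-2 (1.5 nM) phosphorylates 1.0 μM PIM2tide with 4 μM [γ-33P]ATP for 60 min at 22 °C in pH 7.4 MOPS buffer, 2% DMSO. 10-point 3-fold dilutions from 10 μM top dose; IC50 from 4-parameter fit of percent of control.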

recombinant rat PIM-3 = recombinant rat PIM-3 (Rattus norvegicus, UniProt O70444); assay: PIM-3 Assay (as Example A); details: averaged IC50; 30 μM ATP, 3.75 μM PIM2tide, 0.5 nM PIM-3
Summary of the method: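 Recombinant rat PIM-3 (0.5 nM) with 3.75 μM PIM2tide and 30 μM [γ-33P]ATP in MOPS pH 7.4 buffer, 60 min at 22 °C; labelled peptide captured on phosphocellulose filters and counted by scintillation. 10-point curve (top dose 10 μM, 2% DMSO); IC50 from 4-parameter fit of percent of control.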

PIM-1, sequence (P11309 whole entry, species assumed): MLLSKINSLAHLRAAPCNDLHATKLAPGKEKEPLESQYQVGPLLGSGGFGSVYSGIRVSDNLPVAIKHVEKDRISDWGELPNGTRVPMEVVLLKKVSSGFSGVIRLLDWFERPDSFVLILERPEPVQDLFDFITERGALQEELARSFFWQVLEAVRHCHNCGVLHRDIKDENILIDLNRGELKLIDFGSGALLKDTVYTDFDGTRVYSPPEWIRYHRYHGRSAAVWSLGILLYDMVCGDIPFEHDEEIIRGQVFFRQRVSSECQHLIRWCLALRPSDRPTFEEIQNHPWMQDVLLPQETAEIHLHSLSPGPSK

| IC50 (PIM-1) | IC50 [1] | IC50 (recombinant rat PIM-3) | SMILES |
| --- | --- | --- | --- |
| 0.11 nM | 22 nM | 0.8 nM | CCc1cccc2ccc(-c3nnc4ccc([C@@H](N5CC[C@H](N)C5)C(F)(F)F)cn34)nc12 [Example 37, (S)-1-((R)-1-(3-(8-ethylquinolin-2-yl)-[1,2,4]triazolo[4,3-a]pyridin-6-yl)-2,2,2-trifluoroethyl)pyrrolidin-3-amine dihydrochloride] |
| 0.23 nM | 56 nM | 0.5 nM | CCNC(=O)c1ccc2ccc(-c3nnc4ccc([C@@H](N5CC[C@H](N)C5)C(F)(F)F)cn34)nc2c1 [Example 38, 2-(6-((R)-1-((S)-3-aminopyrrolidin-1-yl)-2,2,2-trifluoroethyl)-[1,2,4]triazolo[4,3-a]pyridin-3-yl)-N-ethylquinoline-7-carboxamide dihydrochloride] |
| 0.08 nM | 18 nM | 1 nM | N[C@H]1CCN([C@H](c2ccc3nnc(-c4ccc5cccc(C6CC6)c5n4)n3c2)C(F)(F)F)C1 [Example 39, (S)-1-((R)-1-(3-(8-cyclopropylquinolin-2-yl)-[1,2,4]triazolo[4,3-a]pyridin-6-yl)-2,2,2-trifluoroethyl)pyrrolidin-3-amine dihydrochloride] |
| 0.21 nM | 78 nM | 4.7 nM | N[C@H]1CCN([C@H](c2ccc3nnc(-c4ccc5cccc(OC(F)(F)F)c5n4)n3c2)C(F)(F)F)C1 [Example 40, (S)-1-((R)-2,2,2-trifluoro-1-(3-(8-(trifluoromethoxy)quinolin-2-yl)-[1,2,4]triazolo[4,3-a]pyridin-6-yl)ethyl)pyrrolidin-3-amine dihydrochloride] |
| 0.11 nM | 16 nM | 2 nM | CC(C)c1cccc2ccc(-c3nnc4ccc([C@@H](N5CC[C@H](N)C5)C(F)(F)F)cn34)nc12 [Example 41, (S)-1-((R)-2,2,2-trifluoro-1-(3-(8-isopropylquinolin-2-yl)-[1,2,4]triazolo[4,3-a]pyridin-6-yl)ethyl)pyrrolidin-3-amine dihydrochloride] |
| 0.26 nM | 49 nM | 0.5 nM | CNC(=O)c1ccc2ccc(-c3nnc4ccc([C@@H](N5CC[C@H](N)C5)C(F)(F)F)cn34)nc2c1 [Example 42, 2-(6-((R)-1-((S)-3-aminopyrrolidin-1-yl)-2,2,2-trifluoroethyl)-[1,2,4]triazolo[4,3-a]pyridin-3-yl)-N-methylquinoline-7-carboxamide dihydrochloride] |
| 0.13 nM | 65 nM | 1.5 nM | CN[C@H]1CCN([C@H](c2ccc3nnc(-c4ccc5cccc(OCC6CC6)c5n4)n3c2)C(F)(F)F)C1 [Example 43, (S)-1-((R)-1-(3-(8-(cyclopropylmethoxy)quinolin-2-yl)-[1,2,4]triazolo[4,3-a]pyridin-6-yl)-2,2,2-trifluoroethyl)-N-methylpyrrolidin-3-amine dihydrochloride] |
| 0.13 nM | 29 nM | 0.2 nM | CC(C)C(=O)Nc1ccc2ccc(-c3nnc4ccc(C(N5CC[C@H](N)C5)C(F)(F)F)cn34)nc2c1 (stereo partly drawn) [Example 44, N-(2-(6-(1-((S)-3-aminopyrrolidin-1-yl)-2,2,2-trifluoroethyl)-[1,2,4]triazolo[4,3-a]pyridin-3-yl)quinolin-7-yl)isobutyramide] |
| 0.21 nM | 29 nM | 0.5 nM | CC(C)(C)c1cccc2ccc(-c3nnc4ccc([C@@H](N5CC[C@H](N)C5)C(F)(F)F)cn34)nc12 [Example 45, (S)-1-((R)-1-(3-(8-tert-butylquinolin-2-yl)-[1,2,4]triazolo[4,3-a]pyridin-6-yl)-2,2,2-trifluoroethyl)pyrrolidin-3-amine dihydrochloride] |
| 0.07 nM | 33 nM | 0.3 nM | CC(C)(C)NC(=O)c1ccc2ccc(-c3nnc4ccc([C@@H](N5CC[C@H](N)C5)C(F)(F)F)cn34)nc2c1 [Example 46, 2-(6-((R)-1-((S)-3-aminopyrrolidin-1-yl)-2,2,2-trifluoroethyl)-[1,2,4]triazolo[4,3-a]pyridin-3-yl)-N-tert-butylquinoline-7-carboxamide dihydrochloride] |
| 0.09 nM | 51 nM | 3.8 nM | N[C@@H]1CCN([C@H](c2ccc3nnc(-c4ccc5cccc(C6CC6)c5n4)n3c2)C(F)(F)F)C1 [Example 47, (R)-1-((R)-1-(3-(8-cyclopropylquinolin-2-yl)-[1,2,4]triazolo[4,3-a]pyridin-6-yl)-2,2,2-trifluoroethyl)pyrrolidin-3-amine dihydrochloride] |
| 1.41 nM | > 100 nM | 1.9 nM | CC(C)NC(=O)c1ccc2ccc(-c3nnc4ccc([C@H](N5CC[C@H](N)C5)C(F)(F)F)cn34)nc2c1 [Example 48, 2-(6-((S)-1-((S)-3-aminopyrrolidin-1-yl)-2,2,2-trifluoroethyl)-[1,2,4]triazolo[4,3-a]pyridin-3-yl)-N-isopropylquinoline-7-carboxamide dihydrochloride] |
| 0.22 nM | 68 nM | 0.4 nM | CC(C)NC(=O)c1ccc2ccc(-c3nnc4ccc([C@@H](N5CC[C@@H](N)C5)C(F)(F)F)cn34)nc2c1 [Example 49, 2-(6-((R)-1-((R)-3-aminopyrrolidin-1-yl)-2,2,2-trifluoroethyl)-[1,2,4]triazolo[4,3-a]pyridin-3-yl)-N-isopropylquinoline-7-carboxamide dihydrochloride] |
| 4.88 nM | > 100 nM | 41 nM | CC(=O)N[C@H]1CCN(C(c2ccc3nnc(-c4ccc5cccc(OCC6CC6)c5n4)n3c2)C(F)(F)F)C1 (stereo partly drawn) [Example 50, N-((3S)-1-(1-(3-(8-(cyclopropylmethoxy)quinolin-2-yl)-[1,2,4]triazolo[4,3-a]pyridin-6-yl)-2,2,2-trifluoroethyl)pyrrolidin-3-yl)acetamide] |
| 0.1 nM | 11 nM | 1.1 nM | N[C@H]1CCN([C@@H](c2ccc3nnc(-c4ccc5cccc(C6CC6)c5n4)n3c2)C(F)(F)F)C1 [Example 51, (S)-1-((S)-1-(3-(8-cyclopropylquinolin-2-yl)-[1,2,4]triazolo[4,3-a]pyridin-6-yl)-2,2,2-trifluoroethyl)pyrrolidin-3-amine dihydrochloride] |
| 1.39 nM | > 100 nM | 2 nM | CC(C)NC(=O)c1ccc2ccc(-c3nnc4ccc([C@H](N5CC[C@@H](N)C5)C(F)(F)F)cn34)nc2c1 [Example 52, 2-(6-((S)-1-((R)-3-aminopyrrolidin-1-yl)-2,2,2-trifluoroethyl)-[1,2,4]triazolo[4,3-a]pyridin-3-yl)-N-isopropylquinoline-7-carboxamide] |
| 0.24 nM | 27 nM | 0.3 nM | CC1(NC(=O)c2ccc3ccc(-c4nnc5ccc([C@@H](N6CC[C@H](N)C6)C(F)(F)F)cn45)nc3c2)CC1 [Example 53, 2-(6-((R)-1-((S)-3-aminopyrrolidin-1-yl)-2,2,2-trifluoroethyl)-[1,2,4]triazolo[4,3-a]pyridin-3-yl)-N-(1-methylcyclopropyl)quinoline-7-carboxamide dihydrochloride] |
